In ChEMBL document CHEMBL1799950, “Antituberculosis cycloartane triterpenoids from Radermachera boniana” (J Nat Prod, 2011):
Values after ≈ are worked out from the molar mass of the structure shown.

Assays:
Vero [1] = test: Cytotoxicity against african green monkey Vero cells after 72 hrs by MTS assay; format: cell-based; settings: Chlorocebus sabaeus
[2] = test system: Mycobacterium tuberculosis; test: Antitubercular activity against Mycobacterium tuberculosis H37Rv ATCC 27294 after 7 days by microplate alamar blue assay; format: functional; settings: H37Rv ATCC 27294, 168 h
Vero [3] = test: Cytotoxicity against african green monkey Vero cells at 200 uM after 72 hrs by MTS assay; format: cell-based; settings: chlorocebus sabaeus

Row | Compound | IC50 (Vero [1]) [µM] | MIC [2] [µM] | Activity (Vero [3])
1 | CC(=O)O[C@H]1CC[C@]23C[C@]24CC[C@]2(C)[C@@H]([C@H](C)CCC(=O)C(C)C)CC[C@@]2(C)[C@@H]4CC[C@H]3[C@]1(C)C(=O)O [BONIANIC ACID B] | 74.2 | 9.9 (≈ 5.1 µg/mL) | 
2 | CC1(C)CC[C@]2(C(=O)O)CC[C@]3(C)C(=CC[C@@H]4[C@@]5(C)CC[C@@H](O)C(C)(C)[C@@H]5CC[C@]43C)[C@@H]2C1 |  | > 200 | 
3 | CC(=O)O[C@H]1CC[C@]23C[C@]24CC[C@]2(C)[C@@H]([C@H](C)CCC=C(C)C)CC[C@@]2(C)[C@@H]4CC[C@H]3[C@]1(C)C(=O)O [BONIANIC ACID A] |  | 34.8 (≈ 17.4 µg/mL) | 
4 | CC1(C)CC[C@]2(C(=O)O)CC[C@]3(C)C(=CC[C@@H]4[C@@]5(C)CC[C@H](O)C(C)(C)[C@@H]5CC[C@]43C)[C@@H]2C1 [OLEANOLIC_ACID] |  | 96.5 (≈ 44.1 µg/mL) | 
5 | CC[C@H](CC[C@@H](C)[C@H]1CC[C@H]2[C@@H]3CC=C4CC(=O)CC[C@]4(C)[C@H]3CC[C@]12C)C(C)C [BETA-SITOSTENONE] |  | 39.5 (≈ 16.3 µg/mL) | 
6 | CC(C)[C@@H](C)/C=C/[C@@H](C)[C@H]1CC[C@@H]2[C@]1(C)CC[C@H]1[C@]23C=C[C@]2(C[C@@H](O)CC[C@]12C)OO3 [ERGOSTEROL PEROXIDE] |  | 3.5 (≈ 1.5 µg/mL) | Non-toxic
7 | CC(=O)O[C@H]1CC[C@]2(C)[C@H]3CC=C4[C@H]5[C@](C(=O)O)(CC[C@@H](C)[C@@]5(C)O)CC[C@@]4(C)[C@]3(C)C[C@@H](O)[C@H]2C1(C)C |  | 75.5 (≈ 40.1 µg/mL) | 
8 | CO[C@H]1/C=C/O[C@@]2(C)Oc3c(C)c(O)c4c(O)c(c(/C=N/N5CCN(C)CC5)c(O)c4c3C2=O)NC(=O)/C(C)=C\C=C\[C@H](C)[C@H](O)[C@@H](C)[C@@H](O)[C@@H](C)[C@H](OC(C)=O)[C@@H]1C [RIFAMPIN] |  | 0.14 (≈ 0.115 µg/mL) | 
9 | CC(=O)O[C@@H]1CC[C@@]2(C)[C@@H](CC[C@]3(C)[C@@H]2CC=C2[C@@H]4CC(C)(C)CC[C@]4(C)CC[C@]23C)[C@@]1(C)C(=O)O |  | 94.8 (≈ 47.3 µg/mL) | 
10 | C[C@H]1[C@H](C)CC[C@]2(C(=O)O)CC[C@]3(C)C(=CC[C@@H]4[C@@]5(C)CC[C@H](O)C(C)(C)[C@@H]5CC[C@]43C)[C@H]12 [URSOLIC ACID] |  | 94.8 (≈ 43.3 µg/mL) | 
